From patent publication US7148232B2, “Oxazolo, thiazolo and selenazolo [4,5-c]-quinolin-4-amines and analogs thereof” (3M Innovative Properties Company, priority 1998, dated 2006)
Several values for one entry are separate records, joined by “and”; a condition that tells them apart may be missing. Identical values can stand only once.

Tests used:
[1] = system: interferon (α); experiment: Interferon (α) induction in human cells (in vitro human blood cell system, interferon by bioassay); type: cell-based; settings: human PBM's, 48 hours
Experimental: An in vitro human blood cell system was used to assess interferon induction by compounds of the invention. Activity is based on the measurement of interferon secreted into culture media. Interferon is measured by bioassay.
Whole blood is collected by venipuncture into EDTA vacutainer tubes. Peripheral blood mononuclear cells (PBM's) are separated from whole blood by using either LeucoPREP™ Brand Cell Separation Tubes (available from Becton Dickinson) or Ficoll-Paque® solution (available from Pharmacia LKB Biotechnology Inc, Piscataway, N.J.). […] 200 μL portions of PBM suspension are added to 96 well (flat bottom) sterile tissue culture plates (Becton Dickinson Labware, Lincoln Park, N.J.).
The compounds are solubilized in ethanol, dimethyl sulfoxide or tissue culture water then diluted with tissue culture water, 0.01N sodium hydroxide or 0.01N hydrochloric acid (The choice of solvent will depend on the chemical characteristics of the compound being tested.). Ethanol or DMSO concentration should not exceed a final concentration of 1% for addition to the culture wells. Compounds are initially tested in a concentration range of from about 0.1 μg/mL to about 5 μg/mL. Compounds which show induction at a concentration of 0.5 μg/mL are then tested in a wider concentration range.
The solution of test compound is added in a volume (less than or equal to 50 μL) to the wells containing 200 μL of diluted whole blood or of PBM's in media. Solvent and/or media is added to control wells (wells with no test compound) and as needed to adjust the final volume of each well to 250 μL. The plates are covered with plastic lids, vortexed gently and then incubated for 48 hours at 37° C. with a 5% carbon dioxide atmosphere.
Following incubation, the plates are covered with parafilm and then centrifuged at 1000 rpm for 10 to 15 minutes at 4° C. in a Damon IEC Model CRU-5000 centrifuge. Media (about 200 μL) is removed from 4 to 8 wells and pooled into 2 mL sterile freezing vials. Samples are maintained at −70° C. until analysis.
Interferon is determined by bioassay using A549 human lung carcinoma cells challenged with encephalomyocarditis. The details of the bioassay method have been described by G. L. Brennan and L. H. Kronenberg in “Automated Bioassay of Interferons in Micro-test Plates”, Biotechniques, June/Jul. […] The incubated cells are infected with an inoculum of encephalomyocarditis virus. The infected cells are incubated for an additional period at 37° C. before quantifying for viral cytopathic effect. The viral cytopathic effect is quantified by staining followed by spectrophotometric absorbance measurements. Results are expressed as alpha reference units/mL based on the value obtained for NIH HU IF-L standard.
Compounds of the invention were tested for their ability to induce interferon in human cells using the test method described above.

| Structure (SMILES) | melting point | Interferon (α) Induction in Human Cells ([1]; Dose Concentration 0.01 μg/mL) | Interferon (α) Induction in Human Cells ([1]; Dose Concentration 0.05 μg/mL) | Interferon (α) Induction in Human Cells ([1]; Dose Concentration 0.10 μg/mL) | Interferon (α) Induction in Human Cells ([1]; Dose Concentration 0.50 μg/mL) | Interferon (α) Induction in Human Cells ([1]; Dose Concentration 1.0 μg/mL) | Interferon (α) Induction in Human Cells ([1]; Dose Concentration 5.0 μg/mL) | Interferon (α) Induction in Human Cells ([1]; Dose Concentration 10.0 μg/mL) | Interferon (α) Induction in Human Cells ([1]; Dose Concentration 25.0 μg/mL) | Interferon (α) Induction in Human Cells ([1]; Dose Concentration 50.0 μg/mL) |
| --- | --- | --- | --- | --- | --- | --- | --- | --- | --- | --- |
| Cc1nc2c(N)nc3ccccc3c2s1 [Example 2, 2-Methylthiazolo[4,5-c]quinolin-4-amine] | 184 to 187 °C and 184 to 186 °C | − | − | ± | + | + | + |  |  |  |
| Cc1nc2c(N)nc3ccccc3c2s1.Cl [Example 4, 2-Methylthiazolo[4,5-c]quinolin-4-amine Hydrochloride] | 323 to 325 °C | − | − | − | + | + | + |  |  |  |
| CCc1nc2c(N)nc3ccccc3c2s1 [Example 8, 2-Ethylthiazolo[4,5-c]quinolin-4-amine] | 170 to 172 °C and 169 to 171 °C | − | − | − | + | + | + |  |  |  |
| CCCCCc1nc2c(N)nc3ccccc3c2s1 [Example 16, 2-Pentylthiazolo[4,5-c]quinolin-4-amine] | 119 to 121 °C | − | − | − | − | + | + |  |  |  |
| Nc1nc2ccccc2c2sc(/C=C/c3ccccc3)nc12 [Example 22, 2-(2-Phenyl-1-ethenyl)thiazolo[4,5-c]quinolin-4-amine] | 239 to 241 °C | − | − | − | − | − | − | + | + | + |
| CC(C)(Cc1nc2c(N)nc3ccccc3c2s1)OC(N)=O [Example 26, 2-(4-Aminothiazolo[4,5-c]quinolin-2-yl)-1,1-dimethylethyl Carbamate] | 222 to 223 °C | − | − | − | − | − | + | + | + | + |
| CCOCc1nc2c(N)nc3ccccc3c2s1 [Example 28, 2-(Ethoxymethyl)thiazolo[4,5-c]quinoline-4-amine] | 149 to 151 °C | − | − | − | + | + | + |  |  |  |
| COCc1nc2c(N)nc3ccccc3c2s1 [Example 30, 2-(Methoxymethyl)thiazolo[4,5-c]quinolin-4-amine] | 183 to 185 °C | − | − | − | − | + | + |  |  |  |
| CC(C)Cc1nc2c(N)nc3ccccc3c2s1 [Example 32, 2-(2-Methylpropyl)thiazolo[4,5-c]quinolin-4-amine] | 123 to 125 °C | − | − | ± | + | + | + |  |  |  |
| CCCc1nc2c(N)nc3ccc(C)cc3c2s1 [Example 36, 8-Methyl-2-propylthiazolo[4,5-c]quinolin-4-amine] | 147 to 149 °C | − | − | − | − | + | + |  |  |  |
| Nc1nc2ccccc2c2sc(CO)nc12 [Example 37, (4-Aminothiazolo[4,5-c]quinolin-2-yl)-methanol] | 247 to 249 °C | − | − | − | − | − | − |  |  |  |
| Cc1nc2c(N)nc3ccccc3c2o1 [Example 38, 2-Methyloxazolo[4,5-c]quinolin-4-amine] | 195 to 197 °C | − | − | − | + | + | + |  |  |  |
| CCc1nc2c(N)nc3ccccc3c2o1 [Example 39, 2-Ethyloxazolo [4,5-c]quinolin-4-amine] | 175 to 178 °C | − | − | + | + | + | + |  |  |  |
| CCCc1nc2c(N)nc3ccccc3c2o1 [Example 43, 2-Propyloxazolo[4,5-c]quinolin-4-amine] | 159 to 160 °C | − | + | + | + | + | + |  |  |  |
| CCCc1nc2c(N)nc3ccc(Br)cc3c2s1 [Example 44, 8-Bromo-2-propylthiazolo[4,5-c]quinolin-4-amine] | 177 to 180 °C |  |  | − | − | − | + | + | + | + |
| CCCc1nc2c(N)nc3cc(C)ccc3c2s1 [Example 45, 7-Methyl-2-propylthiazolo[4,5-c]quinolin-4-amine] | 186 to 187 °C | − | + | + | + | + | + |  |  |  |
| CCCc1nc2c[n+]([O-])c3cccnc3c2s1 [Example 59, 2-Propylthiazolo[4,5-c][1,5]naphthyridine-5N-oxide] | 139 to 142 °C |  |  |  |  |  |  |  |  |  |
| CCCc1nc2c[n+]([O-])ccc2s1 [Example 61, 2-Propylpyrido[3,4-d][1,3]thiazole-5N-oxide] | 137 to 139 °C |  |  |  |  |  |  |  |  |  |
